Holding throughout (format): cell-based
One assay relates to 786-0 cells. The assay can be described thus: Apoptosis in 786-0 cells (Annexin V / PI flow cytometry). Also on record: unit not given here. The following applies: 200 ng/mL. As to the method: In order to evaluate the mechanism of action of these compounds, 786-0 cell cultures were treated with Cpd 9 or Cpd 28 at different concentrations overnight and then analyzed for apoptotic induction. The cells were stained using standard methods with Annexin V and/or Propedium iodine (PI) at room temperature for 15 minutes. Apoptotic cells at early (Annexin V positive) or late stage (both Annexin V and PI positive) were detected by Flow Cytometry.
In general terms: A flow cytometer gives signals particle by particle.

The test system of a further assay is MCF7 breast cancer cells. The assay can be described thus: Mammosphere cancer stem cell inhibition assay. As to the method: A mammosphere cancer stem cell inhibition assay was set up using literature methods (T. M. Phillips et al. J. Natl. Cancer I. 2006, 98, 1777-1785, “Mammalian target of rapamycin contributes to the acquired apoptotic resistance of human mesothelioma multicellular spheroids”) using a subset of MCF7 breast cancer cells that posses the ability to evade anchorage independent apoptosis. Commercially available MCF7 breast cancer cells were cultured in MEM supplemented with 0.01 mg/mL of bovine insulin and 10% FBS at 37° C. in humidified atmosphere (5% CO2). Floating cells in the 2-day cultures were collected, washed, and resuspended in DMEM-F12 (50:50) supplemented with 0.4% BSA, 5 μg/mL bovine insulin, 20 ng/mL bFGF, and 10 ng/mL EGF. Cells were then passed through a […] sieve to remove any cell clusters and adjusted to a density of 10,000 cells/mL. Approximately 500 cells were plated in quadruplicate in a sterile poly-HEMA-treated 96-well plate. Cells were then treated with either control or test solutions consisting of the kinase inhibitor Lapatinib (1 μM), Cpd 28 (1 or 10 μM), Cpd 55 (1 or 10 μM), The numbers of mammospheres (clusters of cells numbering more than 4 or 5 per cluster) were then counted after 5-7 days.

The test system of a further assay is PC3 cells. The assay can be described thus: PC3 prostate cancer cell proliferation (WST). As to conditions: Homo sapiens, PC-3; 72 hours; read-out: IC50 PC3 Proliferation. As to the method:
PC3 cells were obtained from the American Type Culture Collection (ATCC, Manassas, Va., Cat.# CRL-1435) Two thousand cells from the prostate cancer line PC3 were placed in 50 μL of complete RPMI 1640 media (Invitrogen, Carlsbad, Calif., Cat.#22400-105) with 10% fetal bovine serum (Invitrogen, Carlsbad, Calif., Cat.#10438-026) into each well of 96 well cell culture plates in a hexaplicate sampling pattern. A 50 μL aliquot of test compound (prepared from stock test compounds in DMSO diluted into media) was added to the appropriate well such that the final concentrations of test compound were 200, 40, 8, 1.6, 0.32, 0.064, 0.0128, 0.00256, and 0 μM and the final DMSO concentration was less than or equal to 0.2%.
The plates were incubated for 72 hours 37° C. in an atmosphere of 5% CO2. At the end of this time a 10 μL aliquot of WST solution (Roche Applied Science, Mannheim, Germany) was added into each of the wells. Cells were exposed to the WST solution for 4 hours. A SpectraMax Plus spectrophotometric plate reader (Molecular Devices, Sunnydale, Calif.) was then used to measure the optical density at 450 nm (OD450 nm). Sigmoidal curves were drawn for the dose responses and IC50 values were calculated using the software package GraphPad Prism4 (GraphPad Software, Inc., San Diego, Calif.).

The structures appear in SMILES notation. pIC50: −log10 of the molar value. Starred links: 1 amine or outer side, 2 acyl side, 3 side chain; linkers in the order of their positions; H or OH if unused. Positions of bridges follow the written chain, without caps; N, C: chain ends. Non-standard residues stand in square brackets, D forms with d. Residues, ends and D or L forms follow the SMILES beside them. Chains are numbered I, II in the order given. Actinocin(9to1) = Cc1c2oc3c(C)ccc(C(=O)[*:1])c3nc-2c(C(=O)[*:2])c(N)c1=O; NMeV = CN[C@H](C(=O)O)C(C)C; Sar = CNCC(=O)O

`Cc1c2oc3c(C)ccc(C(=O)N[C@@H]4C(=O)N[C@H](C(C)C)C(=O)N5CCC[C@H]5C(=O)N(C)CC(=O)N(C)[C@@H](C(C)C)C(=O)O[C@@H]4C)c3nc-2c(C(=O)N[C@@H]2C(=O)N[C@H](C(C)C)C(=O)N3CCC[C@H]3C(=O)N(C)CC(=O)N(C)[C@@H](C(C)C)C(=O)O[C@@H]2C)c(N)c1=O` [Actinomycin D, reference compound] (I: T[dV]P[Sar][NMeV] / II: T[dV]P[Sar][NMeV]; ester I:1-I:C, II:1-II:C; linker I:N-II:N via Actinocin(9to1)): in the assay on 786-0 cells, the “Early stage apoptotic cells” value came to 16.93, the “Late stage apoptotic cells” value is on record as 12.63 and the “Total Apoptotic Cells” value was found to be 29.56.

Turning to `O=C(Nc1ccc(-c2csc3c(=O)cc(N4CCOCC4)oc23)cc1)c1cccnc1` [Compound 55], the “inhibition of mammosphere production versus control” value in the assay on MCF7 breast cancer cells (1 μM, first experiment) is listed as “approximately 60%”; in the assay on MCF7 breast cancer cells (10 μM, first experiment), approximately 86%. Also, the number of mammospheres with MCF7 breast cancer cells (1 μM, first experiment, control 38±4) amounted to 16±2 mammospheres; with MCF7 breast cancer cells (10 μM, first experiment, control 38±4), 5±1 mammospheres. For the same molecule, the pIC50 in the assay with PC3 cells is 5.82 to 5.98.

Take `CN1CCN(c2ncc(-c3csc4c(=O)cc(N5CCOCC5)oc34)cn2)CC1` [Compound 43]: the “inhibition of mammosphere production versus control” value is listed as approximately 53% in the assay with MCF7 breast cancer cells (1 μM, separate experiment) and approximately 58% in the assay on MCF7 breast cancer cells (10 μM, separate experiment). Also, the number of mammospheres stood at 18±6 mammospheres in the assay with MCF7 breast cancer cells (1 μM, separate experiment, control 32±6) and 16±6 mammospheres in the assay with MCF7 breast cancer cells (10 μM, separate experiment, control 32±6). Further, the pIC50 with PC3 cells was 5.03.

As for `O=c1cc(C2CCOCC2)oc2c(-c3ccccc3)cccc12` [Compound 67, 8-Phenyl-2-(tetrahydro-2H-pyran-4-yl)-4H-chromen-4-one], in the assay with PC3 cells, the pIC50 was 4.02.

For `O=c1cc(N2CCOCC2)oc2c(-c3ccco3)csc12` [Compound 4], the pIC50 in the assay on PC3 cells was 5.23.

Take `O=C(NCc1ccc(Cl)cc1)c1csc2c(=O)cc(N3CCOCC3)oc12` [Compound 88]: the pIC50 in the assay on PC3 cells is 4.66.

For the molecule `O=C(Nc1ccc(-c2csc3c(=O)cc(N4CCOCC4)oc23)cc1)c1ccccc1` [Compound 34], in the assay with PC3 cells, the pIC50 is 5.70.

For the molecule `O=c1cc(N2CCOCC2)oc2c(-c3ccc4[nH]ccc4c3)csc12` [Compound 19], the pIC50 in the assay on PC3 cells is 5.09.

With `O=C(Nc1ccccn1)c1cccc(-c2csc3c(=O)cc(N4CCOCC4)oc23)c1` [Compound 66], the pIC50 in the assay with PC3 cells is 5.16.

The record behind these values is patent US9981983B2, “Thienopyranones as kinase inhibitors” (SignalRx Pharmaceuticals, Inc., priority 2008, dated 2018).
